# Test results from patent US20040121316A1 (priority 2002, published 2004).
# System: wild-type HIV-1 strain IIIB
# Assay: microbe, parasite or virus in culture
# Format: cell-based
# Design: scale not given here
# Details: not given
Compound,EC50 (nM),EC50
CCOP(=O)(COc1ccc(C[C@H](NC(=O)O[C@H]2CO[C@H]3OCC[C@H]32)[C@H](O)CN(CC(C)C)S(=O)(=O)c2ccc([N+](=O)[O-])cc2)cc1)OCC,+ +,
CCOP(=O)(CCNCc1ccc(CC(NC(=O)OC2COC3OCCC23)C(O)CN(CC(C)C)S(=O)(=O)c2ccc(OC)cc2)cc1)OCC (stereo not shown) [drawing 619 R1=Et R2=Et],,+ + +

# Same assay, conditions: Human immunodeficiency virus 1, IIIB
row,Compound,EC50 [µM]
1,CCOP(=O)(COc1ccc2c(c1)CN(CC(NC(=O)OC1COC3OCCC13)C(O)CN(CC(C)C)S(=O)(=O)c1ccc(OC)cc1)C2)OCC (stereo not shown),> 5
2,COc1ccc(S(=O)(=O)N(CC2CCNCC2)CC(O)C(Cc2ccc(O)cc2)NC(=O)OC2COC3OCCC23)cc1 (stereo not shown),> 5
3,COc1ccc(S(=O)(=O)N(CC2CCN(C=O)CC2)CC(O)C(Cc2ccc(OCP(=O)(O)O)cc2)NC(=O)OC2COC3OCCC23)cc1 (stereo not shown),> 5
4,CCOP(=O)(COc1ccc(CC(NC(=O)OC2COC3OCCC23)C(O)CN(CC2CCN(C=O)CC2)S(=O)(=O)c2ccc(OC)cc2)cc1)OCC (stereo not shown),> 5
5,CCOP(=O)(COc1ccc(CC(NC(=O)OC2COC3OCCC23)C(O)CN(CC2CCN(C)CC2)S(=O)(=O)c2ccc(OC)cc2)cc1)OCC (stereo not shown),> 5
6,CC(C)CN(CC(O)C(Cc1ccc(OCP(=O)(O)O)cc1)NC(=O)OC1COC2OCCC12)S(=O)(=O)c1ccccc1 (stereo not shown),> 5
7,CC(C)CN(CC(O)C(Cc1ccc(OCP(=O)(O)O)cc1)NC(=O)OC1COC2OCCC12)S(=O)(=O)c1ccc(F)cc1 (stereo not shown),0.5 to 5
8,CC(C)CN(CC(O)C(Cc1ccc(OCP(=O)(O)O)cc1)NC(=O)OC1COC2OCCC12)S(=O)(=O)c1ccc(C(F)(F)F)cc1 (stereo not shown),0.5 to 5
9,CC(C)CN(CC(O)C(Cc1ccc(OCP(=O)(O)O)cc1)NC(=O)OC1COC2OCCC12)S(=O)(=O)c1ccc(OC(F)(F)F)cc1 (stereo not shown),0.5 to 5
10,CC(C)CN(CC(O)C(Cc1ccc(OCP(=O)(O)O)cc1)NC(=O)OC1COC2OCCC12)S(=O)(=O)N1CCN(C)CC1 (stereo not shown),> 5
11,COc1ccc(S(=O)(=O)N(CC(C)C)CC(O)C(Cc2ccccc2)NC(=O)OC2COC3OCCC23)cc1OCP(=O)(OCc1ccccc1)OCc1ccccc1 (stereo not shown),0.5 to 5
12,"CC(C)CN(C[C@@H](O)[C@H](Cc1ccccc1)NC(=O)O[C@H]1CO[C@H]2OCC[C@H]21)S(=O)(=O)c1ccc(N)cc1 [TMC114, reference compound]",< 0.05
13,COc1ccc(S(=O)(=O)N(CC(C)C)CC(O)C(Cc2ccc(OCP(=O)(OCC(F)(F)F)OCC(F)(F)F)cc2)NC(=O)OC2COC3OCCC23)cc1 (stereo not shown) [drawing 608 R1=OCH2CF3 R2=OCH2CF3],> 5
14,CCOP(=O)(COc1ccc(CC(NC(=O)OC2COC3OCCC23)C(O)CN(CC(C)C)S(=O)(=O)c2ccc(OC)cc2)cc1)OCC (stereo not shown) [drawing 608 R1=OEt R2=OEt],< 0.05
15,COc1ccc(S(=O)(=O)N(CC(C)C)CC(O)C(Cc2ccc(OCP(=O)(OC)OC)cc2)NC(=O)OC2COC3OCCC23)cc1 (stereo not shown) [drawing 608 R1=OMe R2=OMe],< 0.05
16,COc1ccc(S(=O)(=O)N(CC(C)C)CC(O)C(Cc2ccc(OCP(=O)(OC(C)C)OC(C)C)cc2)NC(=O)OC2COC3OCCC23)cc1 (stereo not shown) [drawing 608 R1=OiPr R2=OiPr],< 0.05
17,CCOP(=O)(COc1ccc(CC(NC(=O)OC2COC3OCCC23)C(O)CN(CC(C)C)S(=O)(=O)c2ccc(O)cc2)cc1)OCC (stereo not shown) [drawing 609 R1=Et R2=Et],< 0.05
18,CC(C)CN(CC(O)C(Cc1ccc(OCP(=O)(O)O)cc1)NC(=O)OC1COC2OCCC12)S(=O)(=O)c1ccc(O)cc1 (stereo not shown) [drawing 609 R1=OH R2=OH],0.5 to 5
19,CCCCOC(=O)C(C)NP(=O)(COc1ccc(CC(NC(=O)OC2COC3OCCC23)C(O)CN(CC(C)C)S(=O)(=O)c2ccc(OC)cc2)cc1)NC(C)C(=O)OCCCC (stereo not shown) [drawing 612 R1=Ala-Bu R2=Ala-Bu],< 0.05
20,CCCCOC(=O)CNP(=O)(COc1ccc(CC(NC(=O)OC2COC3OCCC23)C(O)CN(CC(C)C)S(=O)(=O)c2ccc(OC)cc2)cc1)NCC(=O)OCCCC (stereo not shown) [drawing 612 R1=Gly-Bu R2=Gly-Bu],< 0.05
21,CCOC(=O)CNP(=O)(COc1ccc(CC(NC(=O)OC2COC3OCCC23)C(O)CN(CC(C)C)S(=O)(=O)c2ccc(OC)cc2)cc1)NCC(=O)OCC (stereo not shown) [drawing 612 R1=Gly-Et R2=Gly-Et],0.05 to 0.5
22,CCOC(=O)C(CC(C)C)NP(=O)(COc1ccc(CC(NC(=O)OC2COC3OCCC23)C(O)CN(CC(C)C)S(=O)(=O)c2ccc(OC)cc2)cc1)NC(CC(C)C)C(=O)OCC (stereo not shown) [drawing 612 R1=Leu-Et R2=Leu-Et],< 0.05
23,COc1ccc(S(=O)(=O)N(CC(C)C)CC(O)C(Cc2ccc(OCP(=O)(O)NC(C)C(=O)O)cc2)NC(=O)OC2COC3OCCC23)cc1 (stereo not shown) [drawing 614 R1=OH R2=Ala-OH],> 5
24,COc1ccc(S(=O)(=O)N(CC(C)C)CC(O)C(Cc2ccc(CNCCP(=O)(O)O)cc2)NC(=O)OC2COC3OCCC23)cc1 (stereo not shown) [drawing 619 R1=H R2=H],> 5

# Same assay, conditions: Human immunodeficiency virus 1, IIIB, MT2, 120 h, read-out: Anti-HIV-1 Cell Culture Activity EC50
row,Compound,EC50 [µM]
1,CCOC(=O)CNP(=O)(COc1ccc(CC(NC(=O)OC2COC3OCCC23)C(O)CN(CC(C)C)S(=O)(=O)c2ccc(OC)cc2)cc1)NCC(=O)OCC (stereo not shown) [Compound 16a],0.33 ± 0.23
2,CCCCOC(=O)C(CC)NP(=O)(COc1ccc(CC(NC(=O)OC2COC3OCCC23)C(O)CN(CC(C)C)S(=O)(=O)c2ccc(OC)cc2)cc1)NC(CC)C(=O)OCCCC (stereo not shown) [Example 16f],0.0048 ± 0.0018
3,CCCCOC(=O)C(CC(C)C)NP(=O)(COc1ccc(CC(NC(=O)OC2COC3OCCC23)C(O)CN(CC(C)C)S(=O)(=O)c2ccc(OC)cc2)cc1)NC(CC(C)C)C(=O)OCCCC (stereo not shown) [Example 16h],0.12 ± 0.042

# Same assay, conditions: read-out: EC50
row,Compound,EC50 [µM]
1,CCOC(=O)C(CC)NP(=O)(COc1ccc(CC(NC(=O)OC2COC3OCCC23)C(O)CN(CC(C)C)S(=O)(=O)c2ccc(OC)cc2)cc1)Oc1ccccc1 (stereo not shown) [Example 16576],0.0126 ± 0.0048
2,COc1ccc(S(=O)(=O)N(CC(C)C)C[C@@H](O)[C@H](Cc2ccc(OCP(=O)(O)O)cc2)NC(=O)O[C@H]2CO[C@H]3OCC[C@H]32)cc1 [GS8373],4.8
3,"CC(C)CN(C[C@@H](O)[C@H](Cc1ccc([N+](=O)[O-])cc1)NC(=O)O[C@H]1CO[C@H]2OCC[C@H]21)S(=O)(=O)c1ccc(OCP(=O)(Oc2ccccc2)Oc2ccccc2)cc1 [NO2, phenol]",< 0.05
4,"CC(C)CN(CC(O)C(Cc1ccc(OCCN(C)C)cc1)NC(=O)OC1COC2OCCC12)S(=O)(=O)c1ccc(OCP(=O)(OCc2ccccc2)OCc2ccccc2)cc1 (stereo not shown) [OC2H4-NMe2, OBn]",0.05 to 0.5
5,"CC(C)CN(CC(O)C(Cc1ccc(OCCN(C)C)cc1)NC(=O)OC1COC2OCCC12)S(=O)(=O)c1ccc(OCP(=O)(O)O)cc1 (stereo not shown) [OC2H4NMe2, OH]",0.5 to 5
6,"CC(C)CN(CC(O)C(Cc1ccc(O)cc1)NC(=O)OC1COC2OCCC12)S(=O)(=O)c1ccc(OCP(=O)(OCc2ccccc2)OCc2ccccc2)cc1 (stereo not shown) [OH, OBn]",0.05 to 0.5
7,"CC(C)CN(CC(O)C(Cc1ccc(O)cc1)NC(=O)OC1COC2OCCC12)S(=O)(=O)c1ccc(OCP(=O)(O)O)cc1 (stereo not shown) [OH, OH]",> 5
8,COc1ccc(S(=O)(=O)N(CC(C)C)C[C@@H](OP(=O)(O)O)[C@H](Cc2ccccc2)NC(=O)O[C@H]2CO[C@H]3OCC[C@H]32)cc1 [Phosphate prodrug of 94-003],< 0.05
9,CC(C)CN(C[C@@H](OP(=O)(O)O)[C@H](Cc1ccccc1)NC(=O)O[C@H]1CCOC1)S(=O)(=O)c1ccc(N)cc1 [Phosphate prodrug of ampenavir],0.05 to 0.5

# System: mutant HIV-1 I84V/L90M
# Assay: Resistance Evaluation, I84V/L90M fold change
# Format: cell-based
# Details: EC50 of mutant I84V/L90M relative to wild type; class symbols
row,Compound,I84V/L90M fold change
1,CCOP(=O)(CN1CC=C(CC(NC(=O)OC2COC3OCCC23)C(O)CN(CC(C)C)S(=O)(=O)c2ccc(OC)cc2)CC1)OCC (stereo not shown),+ (>3 to ≦10)
2,CCOP(=O)(CCC1=CCN(CC(NC(=O)OC2COC3OCCC23)C(O)CN(CC(C)C)S(=O)(=O)c2ccc(OC)cc2)CC1)OCC (stereo not shown),+ (>3 to ≦10)
3,CCOP(=O)(Cc1ccc(NCC(NC(=O)OC2COC3OCCC23)C(O)CN(CC(C)C)S(=O)(=O)c2ccc(OC)cc2)cc1)OCC (stereo not shown),+ (>3 to ≦10)
4,CCOP(=O)(Cc1ccc(N(C)CC(NC(=O)OC2COC3OCCC23)C(O)CN(CC(C)C)S(=O)(=O)c2ccc(OC)cc2)cc1)OCC (stereo not shown),+ (>3 to ≦10)
5,CCOP(=O)(Cc1ccc(CN(C)CC(NC(=O)OC2COC3OCCC23)C(O)CN(CC(C)C)S(=O)(=O)c2ccc(OC)cc2)cc1)OCC (stereo not shown),− (≦3)
6,CCOP(=O)(Cc1ccc2c(c1)CCN(CC(NC(=O)OC1COC3OCCC13)C(O)CN(CC(C)C)S(=O)(=O)c1ccc(OC)cc1)C2)OCC (stereo not shown),+ (>3 to ≦10)
7,CCOP(=O)(CNc1ccc(CC(NC(=O)OC2COC3OCCC23)C(O)CN(CC(C)C)S(=O)(=O)c2ccc(OC)cc2)cc1)OCC (stereo not shown),− (≦3)
8,COc1ccc(S(=O)(=O)N(CC(C)C)CC(O)C(Cc2ccc(NCP(=O)(OCc3ccccc3)OCc3ccccc3)cc2)NC(=O)OC2COC3OCCC23)cc1 (stereo not shown),− (≦3)

# Same assay, conditions: mutant I84V/L90M vs wild type
row,Compound,I84V/L90M fold change
1,COc1ccc(S(=O)(=O)N(CC(C)C)CC(O)C(Cc2ccc(C)cc2)NC(=O)OC2COC3OCCC23)cc1 (stereo not shown),+ (>3 to ≦10)
2,COc1ccc(S(=O)(=O)N(CC(C)C)CC(O)C(Cc2ccc(OCc3ccccc3)cc2)NC(=O)OC2COC3OCCC23)cc1 (stereo not shown),− (≦3)
3,COc1ccc(S(=O)(=O)N(CCN2CCOCC2)CC(O)C(Cc2ccc(OCP(=O)(OCc3ccccc3)OCc3ccccc3)cc2)NC(=O)OC2COC3OCCC23)cc1 (stereo not shown),+ (>3 to ≦10)
4,Cc1ccc(C(=O)NC(Cc2ccc(OCP(=O)(OCc3ccccc3)OCc3ccccc3)cc2)C(O)CN(CC(C)C)S(=O)(=O)c2ccc(N)cc2)cc1O (stereo not shown),+ (>3 to ≦10)
5,CCOP(=O)(COc1ccc(CC(NC(=O)OC2COC3OCCC23)C(O)CN(CC(C)C)S(=O)(=O)c2ccc([N+](=O)[O-])cc2)cc1)OCC (stereo not shown),− (≦3)
6,CCNc1ccc(S(=O)(=O)N(CC(C)C)CC(O)C(Cc2ccc(OCP(=O)(OCC)OCC)cc2)NC(=O)OC2COC3OCCC23)cc1 (stereo not shown),− (≦3)
7,CC(C)CN(CC(O)C(Cc1ccc(OCP(=O)(OCc2ccccc2)OCc2ccccc2)cc1)NC(=O)OC1COC2OCCC12)S(=O)(=O)c1ccc(N)cc1 (stereo not shown),− (≦3)
8,CCOP(=O)(COc1ccc(CC(NC(=O)OC2COC3OCCC23)C(O)CN(CC(C)C)S(=O)(=O)c2cccc(N)c2)cc1)OCC (stereo not shown),− (≦3)
9,CC(C)CN(CC(O)C(Cc1ccc(OCP(=O)(OCc2ccccc2)OCc2ccccc2)cc1)NC(=O)OC1COC2OCCC12)S(=O)(=O)c1cccc(N)c1 (stereo not shown),− (≦3)
